From patent US7084133B2, “Dicarba-closo-dodecaborane derivatives” (priority 2001, dated 2006)

System: promyelocytic leukemia strain HL-60
Assay: Test for induction of cell differentiation in HL-60 cells (NBT reducing ability), compound alone or with coexistence of VD3
Assay type: cell-based
Settings: compound alone
Procedure: Cell differentiation-inducing action was examined for each of the compounds obtained in the examples alone or with the coexistence of 1×10^−8 M1α,25-dihydroxyvitamin D3 (VD3). According to the method described in Japanese Patent Unexamined Publication (Kokai) No. 61–76440, cell differentiation of promyelocytic leukemia strain HL-60 into granulocytic series was determined based on morphological change and measurement of ability to reduce nitroblue tetrazolium (NBT). The values in the table indicate ratios (%) of differentiated cells calculated from the NBT reducing ability, and the row represented by “VD3” indicates the results obtained by using vitamin D3.

C=C1/C(=C\C=C2/CCC[C@]3(C)[C@@H]([C@H](C)CCCC(C)(C)O)CC[C@@H]23)C[C@@H](O)C[C@@H]1O [VD3, 1α,25-dihydroxyvitamin D3]
ratios (%) of differentiated cells calculated from the NBT reducing ability (Log Concentration (M) −7): 75%
ratios (%) of differentiated cells calculated from the NBT reducing ability (Log Concentration (M) −8): 41%
ratios (%) of differentiated cells calculated from the NBT reducing ability (Log Concentration (M) −9): 7%
